Reference: patent publication US12116358B2, “Substituted indoles and methods of use thereof” (EPIZYME, INC., priority 2018, dated 2024)
Like-named read-outs stand apart in the source and are kept apart here.

What was measured:
SETD2(1434-1711) = target: T1, SETD2(1434-1711) (Homo sapiens, UniProt Q9BYW2); assay: SETD2 (1434-1711) assay; type: biochemical; details: read-out: SETD2 (1434-1711)
T1 construct: SETD2 (1434-1711) Assay; catalogue N/A
T1 sequence (Q9BYW2 1434-1711): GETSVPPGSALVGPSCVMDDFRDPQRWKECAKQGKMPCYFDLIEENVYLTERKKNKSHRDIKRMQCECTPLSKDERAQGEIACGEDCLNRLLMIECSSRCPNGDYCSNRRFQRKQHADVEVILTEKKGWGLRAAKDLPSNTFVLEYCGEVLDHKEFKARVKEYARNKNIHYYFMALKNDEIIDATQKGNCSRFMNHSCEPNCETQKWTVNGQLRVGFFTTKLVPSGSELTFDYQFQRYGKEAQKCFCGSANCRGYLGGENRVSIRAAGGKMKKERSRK

H3K36me3 in A549 cells = assay: In-Cell Western (ICW) assay of SETD2 inhibitors (A549 assay); type: cell-based, human; details: A549 cells, read-out: SETD2 A549
Method in brief: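 A549 cells seeded at 4,000/well onto compound and incubated 3 days at 37° C. Methanol-fixed cells stained overnight at 4° C with anti-H3K36me3 (1:1000), then IRDye 800CW secondary with DRAQ5 DNA counterstain. Plates read by Licor imaging at 700 and 800 channels.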

IC50 (SETD2(1434-1711)) [nM] | IC50 (H3K36me3 in A549 cells; Homo sapiens) [nM] | IC50 (H3K36me3 in A549 cells) [nM] | Structure (SMILES)
700 | 1600 | – | Cc1cccnc1C(CCC(=O)N1CCOCC1)NC(=O)c1cc2c(F)ccc(C)c2[nH]1 (stereo not shown) [compound 334]
80 | 1600 | – | Cc1ccc(F)c2cc(C(=O)Nc3cccc(N4CCCC(N(C)C)C4)c3)[nH]c12 (stereo not shown) [compound 335]
400 | – | 1600 | Cc1ccc(F)c2cc(C(=O)Nc3cccc(N4CCC(C(C)C)CC4)c3)[nH]c12 [compound 336]
400 | – | 1600 | Cc1ccc(F)c2cc(C(=O)Nc3cccc(-c4c[nH]cn4)c3)[nH]c12 [compound 337]
100 | 1700 | – | Cc1ccc(F)c2cc(C(=O)Nc3cc(N4CCN(C)CC4)c4nccn4c3)[nH]c12 [compound 338]
40 | 1700 | – | Cc1ccc(F)c2cc(C(=O)Nc3cc(Cl)cc([C@H]4CC[C@H](N(C)C)CC4)c3)[nH]c12 [compound 339]
200 | – | 1700 | Cc1ccc(F)c2cc(C(=O)Nc3cccc(CCO)c3)[nH]c12 [compound 341]
100 | 1800 | – | Cc1ccc(F)c2cc(C(=O)Nc3cccc(N(C)C4CCN(C)C4)c3)[nH]c12 (stereo not shown) [compound 342]
80 | – | 1800 | Cc1ccc(F)c2cc(C(=O)Nc3cccc(C4CCC(N(C)C)CC4)c3)[nH]c12 (stereo not shown) [compound 343]
200 | – | 1800 | Cc1ccc(F)c2cc(C(=O)Nc3cccc(N4CCN(C)CC4)n3)[nH]c12 [compound 344]
60 | 1800 | – | Cc1ccc(F)c2cc(C(=O)Nc3cc(C#N)cc(N4CCC(N(C)C)CC4)c3)[nH]c12 [compound 345]
100 | – | 1800 | Cc1ccc(F)c2cc(C(=O)Nc3cccc(-c4ccc(CO)cc4)c3)[nH]c12 [compound 346]
3 | – | 1900 | Cc1ccc(F)c2cc(C(=O)Nc3cccc(N4CCC(N5CCC(N)CC5)C4)c3)[nH]c12 (stereo not shown) [compound 347]
70 | – | 1900 | Cc1ccc(F)c2cc(C(=O)Nc3cccc(N4CC5CC4CN5C)c3)[nH]c12 (stereo not shown) [compound 348]
80 | > 2000 | – | Cc1ccc(F)c2cc(C(=O)Nc3cc(N4CCN(C)CC4)c4ncccc4c3)[nH]c12 [compound 350]
100 | > 2000 | – | Cc1ccc(F)c2cc(C(=O)Nc3cccc(CC4CCCN(C)C4)c3)[nH]c12 (stereo not shown) [compound 352]
100 | – | > 2000 | Cc1ccc(F)c2cc(C(=O)Nc3cc(F)cc([C@H]4CC[C@H](N5CCOCC5)CC4)c3)[nH]c12 [compound 353]
300 | – | > 2000 | Cc1ccc(F)c2cc(C(=O)Nc3cccc(-c4cc5ccccn5n4)c3)[nH]c12 [compound 354]
500 | > 2000 | – | Cc1ccc(F)c2cc(C(=O)Nc3cc(N4CCN(C)CC4)n4ccnc4c3)[nH]c12 [compound 355]
600 | > 2000 | – | Cc1cccnc1C(Cc1cn(CC2CC2)cn1)NC(=O)c1cc2c(F)ccc(C)c2[nH]1 (stereo not shown) [compound 356]
700 | – | > 2000 | Cc1ccc(F)c2cc(C(=O)Nc3cccc(Cc4ncc[nH]4)c3)[nH]c12 [compound 357]

IC50 (SETD2(1434-1711)) [nM] | IC50 (H3K36me3 in A549 cells; Homo sapiens) [nM] | IC50 (H3K36me3 in A549 cells) [nM] | Structure (SMILES)
900 | – | > 2000 | Cc1cccnc1C(Cc1ccc(CN2CCOCC2)cc1)NC(=O)c1cc2c(F)ccc(C)c2[nH]1 (stereo not shown) [compound 358]
1200 | – | > 2000 | CC(=O)N1CCN(C2CC(NC(=O)c3cc4c(F)ccc(C)c4[nH]3)CN(C)C2)CC1 (stereo not shown) [compound 360]
1300 | > 2000 | – | Cc1ccc(F)c2cc(C(=O)NC3C(=O)NCCc4cccnc43)[nH]c12 (stereo not shown) [compound 361]
1400 | > 2000 | – | Cc1ccc(F)c2cc(C(=O)N[C@H]3CCC[C@H](N4CCCOCC4)C3)[nH]c12 [compound 362]
1500 | – | > 2000 | CC(=O)N1CCN(C2COCC(NC(=O)c3cc4c(F)ccc(C)c4[nH]3)C2)CC1 (stereo not shown) [compound 363]
2000 | – | > 2000 | Cc1ccc(F)c2cc(C(=O)NC3CNCCc4ccccc43)[nH]c12 (stereo not shown) [compound 364]
2600 | – | > 2000 | CC(=O)N1CC2CC(C1)N2c1cccc(NC(=O)c2cc3c(F)ccc(C)c3[nH]2)c1 [compound 365]
3000 | > 2000 | – | CC(=O)N1CCC(N2CCCC(NC(=O)c3cc4c(F)ccc(C)c4[nH]3)C2)CC1 (stereo not shown) [compound 366]
4200 | – | > 2000 | Cc1ccc(F)c2cc(C(=O)NC3CCCN(C4CCN(C)C(=O)C4)C3)[nH]c12 (stereo not shown) [compound 367]
6100 | – | > 2000 | Cc1ccc(F)c2cc(C(=O)NC3COCC(c4cncnc4)C3)[nH]c12 (stereo not shown) [compound 368]
6300 | – | > 2000 | Cc1ccc(F)c2cc(C(=O)NC3CCCC(c4cncnc4)C3)[nH]c12 (stereo not shown) [compound 369]
6800 | – | > 2000 | Cc1ccc(F)c2cc(C(=O)NC3CCCC(N4CCCN(C)C(=O)C4)C3)[nH]c12 (stereo not shown) [compound 370]
> 10000 | > 2000 | – | Cc1ccc(F)c2cc(C(=O)Nc3ncc(C4CCN(C)CC4)[nH]3)[nH]c12 [compound 371]
> 10000 | – | > 2000 | Cc1ccc(F)c2cc(C(=O)Nc3cccc(N4CCC(N(C)C)(C(F)(F)F)CC4)c3)[nH]c12 [compound 375]
> 10000 | – | > 2000 | CC(=O)N1CCN(C2CCC(NC(=O)c3cc4c(F)ccc(C)c4[nH]3)C2)CC1 (stereo not shown) [compound 376]
> 10000 | > 2000 | – | Cc1ccc(F)c2cc(C(=O)NC3CCCN(CC(=O)N(C)C)C3)[nH]c12 (stereo not shown) [compound 377]
> 10000 | – | > 2000 | Cc1ccc(F)c2cc(C(=O)NC3CCCN(CCC(=O)N(C)C)C3)[nH]c12 (stereo not shown) [compound 378]
> 10000 | – | > 2000 | Cc1ccc(F)c2cc(C(=O)NC3CCCC(c4cncnc4)C3)[nH]c12 (stereo not shown) [compound 379]
> 10000 | – | > 2000 | Cc1ccc(F)c2cc(C(=O)NC3CCCC(c4cncnc4)C3)[nH]c12 (stereo not shown) [compound 380]
> 10000 | – | > 2000 | CC(=O)N1CCN(C2CCC(NC(=O)c3cc4c(F)ccc(C)c4[nH]3)CC2)CC1 (stereo not shown) [compound 383]
> 10000 | – | > 2000 | CNC(=O)CN1CCCC(NC(=O)c2cc3c(F)ccc(C)c3[nH]2)C1 (stereo not shown) [compound 384]

IC50 (SETD2(1434-1711)) [nM] | IC50 (H3K36me3 in A549 cells; Homo sapiens) [nM] | IC50 (H3K36me3 in A549 cells) [nM] | Structure (SMILES)
> 10000 | – | > 2000 | CNC(=O)CCN1CCCC(NC(=O)c2cc3c(F)ccc(C)c3[nH]2)C1 (stereo not shown) [compound 386]
> 10000 | – | > 2000 | Cc1ccc(F)c2cc(C(=O)NC3CCCC(N4CCCN(C)C(=O)C4)C3)[nH]c12 (stereo not shown) [compound 387]
> 10000 | – | > 2000 | Cc1ccc(F)c2cc(C(=O)NC3CCCC(N4CCCOCC4)C3)[nH]c12 (stereo not shown) [compound 388]
> 10000 | – | > 2000 | CC(=O)N(C)CCCN1CCCC(NC(=O)c2cc3c(F)ccc(C)c3[nH]2)C1 (stereo not shown) [compound 389]
200 | 2000 | – | Cc1ccc(F)c2cc(C(=O)Nc3cccc4c(N5CCN(C)CC5)[nH]nc34)[nH]c12 [compound 391]
200 | 2100 | – | Cc1ccc(F)c2cc(C(=O)Nc3cccc(-c4ccn(C)n4)c3)[nH]c12 [compound 394]
100 | – | 2200 | Cc1ccc(F)c2cc(C(=O)Nc3cccc(C4(N)CC4)c3)[nH]c12 [compound 395]
300 | – | 2300 | Cc1cccc2cc(C(=O)Nc3cccc(N4CCN(C(=O)CN)CC4)c3)[nH]c12 [compound 396]
500 | 2400 | – | Cc1ccc(F)c2cc(C(=O)Nc3cccc(-c4cn[nH]c4N)c3)[nH]c12 [compound 397]
70 | – | 2400 | CCc1cc(NC(=O)c2cc3c(F)ccc(C)c3[nH]2)cc(N2CCC(N(C)C)CC2)c1 [compound 398]
1800 | – | 2400 | Cc1ccc(F)c2cc(C(=O)Nc3cccc(S(C)(=O)=O)c3)[nH]c12 [compound 399]
300 | – | 2400 | Cc1ccc(F)c2cc(C(=O)NC(c3nc4ccccn4c3C)C3CC3)[nH]c12 (stereo not shown) [compound 400]
30 | – | 2400 | Cc1ccc(F)c2cc(C(=O)Nc3cc(N4CCN(C)CC4)c4cnccc4c3)[nH]c12 [compound 401]
300 | – | 2500 | Cc1cc(-c2ccc(CN3CCOCC3)nc2)cnc1C(NC(=O)c1cc2cccc(C)c2[nH]1)C1CC1 (stereo not shown) [compound 402]
2500 | – | 2700 | Cc1ccc(F)c2cc(C(=O)NC3CCCc4cnccc43)[nH]c12 (stereo not shown) [compound 403]
300 | 2800 | – | Cc1cc(-c2ncccn2)cnc1C(NC(=O)c1cc2cccc(C)c2[nH]1)C1CC1 (stereo not shown) [compound 404]
400 | – | 2800 | CCN(CC)CCS(=O)(=O)N1CCN(c2cccc(NC(=O)c3cc4cccc(C)c4[nH]3)c2)CC1 [compound 405]
300 | – | 2800 | Cc1cc(-c2cccnc2)cnc1C(NC(=O)c1cc2cccc(C)c2[nH]1)C1CC1 (stereo not shown) [compound 406]
300 | – | 2800 | Cc1ccc(N2CCN(C)CC2)cc1NC(=O)c1cc2c(F)ccc(C)c2[nH]1 [compound 407]

Structure (SMILES) | IC50 (SETD2(1434-1711)) [nM] | IC50 (H3K36me3 in A549 cells; Homo sapiens) [nM] | IC50 (H3K36me3 in A549 cells) [nM]
Cc1ccc(F)c2cc(C(=O)Nc3cccc(N(C)C4CCN(C)CC4)c3)[nH]c12 [compound 351] | 90 | – | > 2000
